# Measurements taken from US8188291B2, “Heteroaryl-substituted carboxamides and their use as pharmaceuticals” (Sanofi-Aventis, priority 2006, dated 2012).
# Counter-ions that a name gives are not always drawn.
# System: eNOS promoter
# Assay: Activation of eNOS transcription (eNOS promoter-luciferase reporter gene assay)
# Type: cell-based
# Conditions: human endothelial cell line stably transfected with eNOS promoter-luciferase construct; 18 h incubation; determined graphically; read-out: EC50 values of transcription induction ratios (TIR)
# Method: Determination of the Biological Activity A) Activation of eNOS Transcription
# Activation of eNOS transcription was measured as described in detail by Li et al., “Activation of protein kinase C alpha and/or epsilon enhances transcription of the human endothelial nitric oxide synthase gene”, Mol. Pharmacol. 53 (1998) 630. Briefly, a 3.5 kB long fragment 5′ of the starting codon of the eNOS gene was cloned, sequenced and cloned in firefly luciferase expression plasmids to monitor activation of the eNOS promoter by reporter gene activity. A human endothelial cell line stable transfected and expressing this promoter-reporter construct was used for compound testing. Cells were incubated for 18 h with the compounds.
# All compounds were dissolved in sterile dimethyl sulfoxide (DMSO). A final concentration of 0.5% DMSO in complete medium was allowed. Induction of reporter gene expression in these cells was measured using a standard luciferase assay system (Promega, Cat. No. E150) according to the manufacturer's instructions. Luciferase induction in cells incubated with compounds were compared to those incubated with solvent alone. The ratio of both activities (transcription induction ratio, TIR) was plotted as a function of compound concentration. Typically, TIR values started at low concentrations at a ratio of 1, indicating no compound effect, and extended up to a maximum TIR value TIR(max) which indicates the increase of the eNOS transcription. EC50 values of transcription induction ratios as a function of compound concentration were determined graphically.
row,Structure (SMILES),EC50
1,"O=C(CCc1ccc(-c2ccc(OC(F)(F)F)cc2)s1)NCC(F)(F)F [Example 8, N-(2,2,2-Trifluoro-ethyl)-3-[5-(4-trifluoromethoxy-phenyl) -thiophen-2-yl]-propionamide]",500 to 5000 nM
2,"O=C(CCc1ccc(-c2ccc(OC(F)(F)F)cc2)s1)NCC1CC1 [Example 7, N-Cyclopropylmethyl-3-[5-(4-trifluoromethoxy-phenyl)-thiophen-2-yl]-propionamide]",< 500 nM
3,"CC(=O)N1CCN(C(=O)CCc2ccc(-c3ccccc3F)s2)CC1 [Example 20, 1-(4-Acetyl-piperazin-1-yl)-3-[5-(2-fluoro-phenyl) -thiophen-2-yl]-propan-1-one]",500 to 5000 nM
4,"O=C(CNc1nc(-c2ccc(F)cc2)cs1)N1CCCCC1 [Example 67, 2-[4-(4-Fluoro-phenyl)-thiazol-2-ylamino]-1-(piperidin-1-yl)-ethanone trifluoroacetic acid salt]",500 to 5000 nM
5,"O=C(CNc1nc(-c2ccc(F)cc2)cs1)N1CCCC1 [Example 69, 2-[4-(4-Fluoro-phenyl)-thiazol-2-ylamino]-1-(pyrrolidin-1-yl)-ethanone trifluoroacetic acid salt]",< 500 nM
6,"O=C(CCc1ccc(-c2ccc(OC(F)(F)F)cc2)s1)Nc1ccccc1 [Example 10, N-Phenyl-3-[5-(4-trifluoromethoxy-phenyl)-thiophen-2-yl]-propionamide]",500 to 5000 nM

# Continued, values first:
row,EC50,Structure (SMILES)
1,< 500 nM,"Nc1nc(CCC(=O)N2CCCCC2)ccc1-c1ccccc1 [Example 79, 3-(6-Amino-5-phenyl-pyridin-2-yl)-1-(piperidin-1-yl) -propanone]"
2,500 to 5000 nM,"O=C(CNc1ccc(-c2ccccc2F)nc1)N1CCCCC1 [Example 89, 2-[6-(2-Fluoro-phenyl)-pyridin-3-ylamino]-1-(piperidin-1-yl)-ethanone trifluoroacetic acid salt]"
3,< 500 nM,"O=C(COc1ccc(-c2ccccc2F)nc1)Nc1nccs1 [Example 78, 2-[6-(2-Fluoro-phenyl)-pyridin-3-yloxy]-N-(thiazol-2-yl) -acetamide trifluoroacetic acid salt]"
4,< 500 nM,"O=C(COc1ccc(-c2ccccc2F)nc1)Nc1ccccn1 [Example 77, 2-[6-(2-Fluoro-phenyl)-pyridin-3-yloxy]-N-(pyridin-2-yl) -acetamide trifluoroacetic acid salt]"
5,500 to 5000 nM,"CC(C)(C)NC(=O)CSc1nc(-c2ccc(F)cc2)cs1 [Example 100, N-tert-Butyl-2-[4-(4-Fluoro-phenyl)-thiazol-2-ylsulfanyl]-acetamide]"
6,500 to 5000 nM,"O=C(CSc1nc(-c2ccc(F)cc2)cs1)N1CCCC1 [Example 98, 2-[4-(4-Fluoro-phenyl)-thiazol-2-ylsulfanyl]-1-(pyrrolidin-1-yl)-ethanone]"
